How the values were obtained:
[1] = molecular target: T1, Spns2 (Spinster homolog 2) (Homo sapiens, UniProt Q8IVW8); assay: cell-based FTY720-P transport assay, WT vs mutants
T1 sequence (Q8IVW8 1-549): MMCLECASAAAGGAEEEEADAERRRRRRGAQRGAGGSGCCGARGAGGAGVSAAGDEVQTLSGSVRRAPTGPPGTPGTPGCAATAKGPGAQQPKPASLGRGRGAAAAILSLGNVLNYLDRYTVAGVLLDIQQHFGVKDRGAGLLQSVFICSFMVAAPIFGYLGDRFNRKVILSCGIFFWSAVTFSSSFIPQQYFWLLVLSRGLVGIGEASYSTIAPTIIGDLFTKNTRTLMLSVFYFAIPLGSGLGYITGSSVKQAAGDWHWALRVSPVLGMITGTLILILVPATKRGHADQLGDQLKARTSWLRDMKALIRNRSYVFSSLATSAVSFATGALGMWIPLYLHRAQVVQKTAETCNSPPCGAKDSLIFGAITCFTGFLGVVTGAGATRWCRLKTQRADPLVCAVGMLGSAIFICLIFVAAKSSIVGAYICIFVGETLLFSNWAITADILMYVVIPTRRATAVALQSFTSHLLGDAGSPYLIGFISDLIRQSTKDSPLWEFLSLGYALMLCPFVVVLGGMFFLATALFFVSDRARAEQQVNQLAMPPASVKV

[2] = molecular target: T2, Spns2 (Spinster homolog 2) (Homo sapiens, UniProt Q8IVW8); assay: cryo-EM structure ([…] Å); affinity selection mass spectrometry; cell-based S1P efflux assay; type: binding
T2 construct: Spns2fusion: PGS (Pyrococcus abyssi glycogen synthase) fused between F222 and T223 on intracellular loop 2
T2 sequence (Q8IVW8 1-222 limits assumed): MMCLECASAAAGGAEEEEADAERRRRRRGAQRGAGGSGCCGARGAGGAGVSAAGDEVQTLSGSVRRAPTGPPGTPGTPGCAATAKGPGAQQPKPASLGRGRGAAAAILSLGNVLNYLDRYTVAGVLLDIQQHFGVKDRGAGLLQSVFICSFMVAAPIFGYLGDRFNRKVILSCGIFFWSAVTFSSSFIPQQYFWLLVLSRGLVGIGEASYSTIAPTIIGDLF
T2 sequence (Q8IVW8 223-549 limits assumed): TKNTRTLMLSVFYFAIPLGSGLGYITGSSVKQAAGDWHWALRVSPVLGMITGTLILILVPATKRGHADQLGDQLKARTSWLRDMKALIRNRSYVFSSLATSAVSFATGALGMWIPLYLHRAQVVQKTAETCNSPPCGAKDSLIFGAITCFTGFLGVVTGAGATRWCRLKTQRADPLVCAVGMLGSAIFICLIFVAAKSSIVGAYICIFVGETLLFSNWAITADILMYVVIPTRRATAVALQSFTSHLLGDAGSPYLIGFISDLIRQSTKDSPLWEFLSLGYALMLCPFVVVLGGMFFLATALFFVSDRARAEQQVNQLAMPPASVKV

Compound	cell-based FTY720-P transport assay, WT vs mutants [1]	cryo-EM structure (3.60 Å); affinity selection mass spectrometry; cell-based S1P [2]
CCCCCCCCc1ccc(CC[C@](N)(CO)COP(=O)(O)O)cc1 [FTY720-P]	substitutions also significantly decreased FTY720-P transport activity, which indicates a similar FTY720-P transport mechanism as S1P	–
CCCCCCCCCCCCC/C=C/[C@@H](O)[C@@H](N)COP(=O)(O)O [S1P, sphingosine-1-phosphate]	–	The affinity selection mass spectrometry results confirmed that endogenous S1P bound to Spns2fusion
